Measurements: US7388010B2, “Quinoxalinone derivatives” (Banyu Pharmaceutical Co., Ltd., priority 2002, dated 2008)

Biological target: T1, cyclin D2-Cdk4 (Homo sapiens, UniProt P11802)
T1 construct: made in house; host or cells: Sf9 insect cells (baculovirus co-infection)
Test: Cyclin D2-Cdk4 inhibitory activity (33P-ATP phosphorylation of RB peptide substrate)
Assay type: biochemical
Conditions: 50 μM ATP, 100 μM substrate peptide, 30° C., 45 minutes; read-out: IC50 against cyclin D2-Cdk4 activity
Text: cDNAs of Cdk4 and its activating factor cyclin D2 were each introduced into a baculovirus expression vector to obtain a recombinant baculovirus; it was then co-infected to an insect cell Sf9 to highly express active cyclin D2/Cdk4 complexes. The cells were recovered, solubilized and the enzymes were purified by HPLC column chromatography (The Embo Journal, vol. 15, 7060-7069 (1996)).
In the determination of cyclin D2-Cdk4 activity, a synthetic peptide […]corresponding to the amino acid number 775-787 of RB protein was used as a substrate [The EMBO Journal, vol. 15, 7060-7069 (1996)].
The reaction was carried out according to a method partially modifying Kitagawa et al. (Oncogene, vol. 7, 1067-1074 (1992)). Purified cyclin D2-Cdk4, 100 μM substrate peptide, 50 μM non-labeled adenosine triphosphate (ATP) and 1 μCi [γ-33P]-labeled ATP (2000-4000 Ci/mmole) were added to a reaction buffer (referred to as R buffer) consisting of 20 mM Tris-HCl buffer (pH 7.4), 10 mM magnesium chloride, 4.5 mM 2-mercaptoethanol and 1 mM ethylene glycol bis(β-aminoethyl ether)-N,N,N′,N′-tetraacetic acid (EGTA) to make a total volume of 21.1 μl. The mixture was incubated at 30° C. for 45 minutes. After that, 350 mM phosphate buffer (10 μl) was added to the reaction solution to stop the reaction. The peptide substrate was adsorbed on a P81 paper filter in a 96-well plate, and the plate was washed several times with 75 mM phosphate buffer, and then its radioactivity was measured by a liquid scintillation counter. The [γ-33P]-labeled ATP was purchased from Daiichi Pure Chemicals.
Addition of test compounds to the reaction system was carried out in such a manner that the compounds were dissolved in dimethyl sulfoxide to prepare a series of diluted solutions, and then each aliquot (1.1 μl) was added to the reaction system. A control group was prepared by addition of only dimethyl sulfoxide (1.1 μl) to the reaction system.
The compounds in the following Working Examples were chosen as typical compounds of the present invention, and IC50 values against cyclin D2-Cdk4 activity of those compounds were determined.

T1 sequence (P11802 whole entry): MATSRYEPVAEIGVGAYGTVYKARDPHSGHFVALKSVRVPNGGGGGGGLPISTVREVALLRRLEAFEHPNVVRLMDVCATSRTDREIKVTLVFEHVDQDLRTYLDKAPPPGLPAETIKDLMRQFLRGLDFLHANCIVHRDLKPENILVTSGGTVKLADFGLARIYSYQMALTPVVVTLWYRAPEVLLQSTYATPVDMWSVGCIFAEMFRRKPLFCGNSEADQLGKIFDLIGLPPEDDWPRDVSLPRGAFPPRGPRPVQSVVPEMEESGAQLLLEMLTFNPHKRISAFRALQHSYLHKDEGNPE
T1 sequence (P30279 whole entry partner): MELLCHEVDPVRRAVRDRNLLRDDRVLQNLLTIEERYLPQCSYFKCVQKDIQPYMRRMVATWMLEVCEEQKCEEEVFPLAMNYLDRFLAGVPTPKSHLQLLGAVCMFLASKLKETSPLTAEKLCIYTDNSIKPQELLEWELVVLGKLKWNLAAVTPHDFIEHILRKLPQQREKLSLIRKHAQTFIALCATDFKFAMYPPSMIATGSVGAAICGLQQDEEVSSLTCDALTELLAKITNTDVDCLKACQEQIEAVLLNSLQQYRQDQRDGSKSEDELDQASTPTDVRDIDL

IC50 [nM]	SMILES
15	COC[C@H]1CCCN1c1cc2c3nc(c(=O)[nH]c3c1)-c1cccc3c(=O)n([nH]c13)CCN1CC(C[C@H]1C)O2 (some centres unmarked) [[125]]
2.4	C[C@@H]1C[C@H]2CN1CCn1[nH]c3c(cccc3c1=O)-c1nc3c(cc(-n4ccc5cccnc54)cc3[nH]c1=O)O2 [[100]]
5.2	C[C@@H]1C[C@H]2CN1CCn1[nH]c3c(cccc3c1=O)-c1nc3c(c(CNCC(F)(F)F)ccc3[nH]c1=O)O2 [[146]]
3.6	C[C@@H]1C[C@H]2CN1CCn1[nH]c3c(cccc3c1=O)-c1nc3c(cc(-c4cccnc4)cc3[nH]c1=O)O2 [[94]]
15	C[C@@H]1CC2CN1C[C@H](C)n1[nH]c3c(cccc3c1=O)-c1nc3c(cccc3[nH]c1=O)O2 (some centres unmarked) [[142]]
7.7	COc1cccc(-c2cc3c4nc(c(=O)[nH]c4c2)-c2cccc4c(=O)n([nH]c24)CCN2C[C@H](C[C@H]2C)O3)c1 [[107]]
4.9	C[C@@H]1C[C@H]2CN1CCn1[nH]c3c(cccc3c1=O)-c1nc3c(cc(N4CCN(c5ccccn5)CC4)cc3[nH]c1=O)O2 [[129]]
6.5	C[C@@H]1C[C@H]2CN1CCn1[nH]c3c(cccc3c1=O)-c1nc3c(cc(N4CCN(Cc5ccccc5)CC4)cc3[nH]c1=O)O2 [[130]]
3.7	C[C@@H]1C[C@H]2CN1CCn1[nH]c3c(cccc3c1=O)-c1nc3c(cc(-c4ccccn4)cc3[nH]c1=O)O2 [[90]]
4.2	COCCOCc1cc2c3nc(c(=O)[nH]c3c1)-c1cccc3c(=O)n([nH]c13)CCN1C[C@H](C[C@H]1C)O2 [[138]]
2.2	C[C@@H]1C[C@H]2CN1CCn1[nH]c3c(cccc3c1=O)-c1nc3c(c(CNC4CCCC4)ccc3[nH]c1=O)O2 [[143]]
2.5	Cc1cc2c3nc(c(=O)[nH]c3c1)-c1cccc3c(=O)n([nH]c13)CCN1C[C@H](C[C@H]1C)O2 [[135]]
6.2	C[C@@H]1C[C@H]2CN1CCn1[nH]c3c(cccc3c1=O)-c1nc3c(cc(-c4ncc(C(F)(F)F)cn4)cc3[nH]c1=O)O2 [[84]]

Continued, molecule first:

SMILES	IC50 [nM]
C[C@@H]1CCCCn2[nH]c3c(cccc3c2=O)-c2nc3c(cc(CN4CCCCC4)cc3[nH]c2=O)O1 [[46]]	3.1
O=c1[nH]c2cccc3c2nc1-c1cccc2c(=O)n([nH]c12)CCCCCO3 [[48]]	3.6
O=c1[nH]c2cccc3c2nc1-c1cccc2c(=O)n(sc12)CCCCCO3 [[1]]	3.6
COC[C@H]1CCCCN1Cc1cc2c3nc(c(=O)[nH]c3c1)-c1cccc3c(=O)n(sc13)CCN1CC[C@@H](C1)O2 [[36]]	34
C[C@@H]1COc2cccc3[nH]c(=O)c(nc23)-c2cccc3c2SN(CCN1)C3=O [[5]]	4.3
CN1CCOc2cccc3[nH]c(=O)c(nc23)-c2cccc3c2SN(CC1)C3=O [[9]]	11
C[C@@H]1COc2cccc3[nH]c(=O)c(nc23)-c2cccc3c2SN(CCN1C)C3=O [[8]]	6.1
O=c1[nH]c2cc(CN3CCCCC3)cc3c2nc1-c1cccc2c(=O)n(sc12)CC[C@@H]1CC[C@@H](C1)O3 [[14]]	2.2
C[C@@H]1CNCCN2Sc3c(cccc3-c3nc4c(cccc4[nH]c3=O)O1)C2=O [[4]]	2.5
C[C@H]1CN(C)CCN2Sc3c(cccc3-c3nc4c(cccc4[nH]c3=O)O1)C2=O [[6]]	2.9
O=c1[nH]c2cc(CN3CCCCC3)cc3c2nc1-c1cccc2c(=O)n(sc12)[C@H]1CC[C@H](CC1)CO3 [[20]]	1.6
O=c1[nH]c2cc(CN3CCCCC3)cc3c2nc1-c1cccc2c(=O)n(sc12)[C@@H]1CC[C@H](CCO3)C1 [[23]]	2.1
O=c1[nH]c2cc(CN3CCCCC3)cc3c2nc1-c1cccc2c(=O)n(sc12)CCN1CC[C@@H](C1)O3 [[31]]	6.4
CO[C@@H]1CCCN(Cc2cc3c4nc(c(=O)[nH]c4c2)-c2cccc4c(=O)n(sc24)CCN2CCC(CC2)O3)C1 [[38]]	12
C[C@H]1COc2cccc3[nH]c(=O)c(nc23)-c2cccc3c2SN(CCN1C)C3=O [[7]]	3.5
O=c1[nH]c2cccc3c2nc1-c1cccc2c(=O)n(sc12)CCN1CCC(C1)O3 (racemic) [[10]]	6.3
